Measured values reported in patent US4939124A, “Treatment and diagnosis of dementia” (Laboratorios Serono S.A., priority 1988, dated 1990).

Test system: growth hormone (GH)
Experiment: GRF test: GRF-induced plasma GH response (radioimmunoassay)
Assay type: in vivo, human
Conditions: for GRF-induced GH response: GRF(1-44)NH2 100 mcg i.v. bolus
Text: The subjects were divided into three groups:
(a) controls (N =9): 5 females and 4 males (age =70.10±2.76 years; range =66-75);
(b) inpatients with early onset senile dementia of the Alzheimer type (EOSDAT) (N =10): 5 females and 5 males (age 65.00±3.31 years; range =57-69); and
(c) inpatients with late onset senile dementia of the Alzheimer type (LOSDAT) (N =10): 5 females and 5 males (age =75.70±3.77 years; range =70-82).
All the SDAT patients met the DSM-III criteria for primary degenerative dementia and rigorous diagnostic criteria for SDAT. […] In LOSDAT, the onset of the disease occurred after the age of 60. The degree of severity of the dementia was assessed with Hasegawa's Dementia Rating Scale (DRS) (Hasegawa K., Inoue K. "An investigation of dementia rating scale for the elderly." Seishinigaku 16:965-969, 1974), Folstein's Mini-Mental State (MMS) Test (Folstein M. F., Folstein S., McHugh P. "Mini-mental state: a practical method for grading the cognitive state of patients for the clinician." J. Psychiat. Res. 12:189-198, 1975) and a modified model of the Brief Cognitive Rating Scale (BCRS) and Functional Assessment Stages (FAST) of Reisberg (Reisberg B., Ferris S. H., De Leon M. J. "Senile dementia of the Alzheimer type: Diagnosis and differential diagnostic features with special reference to functional assessment staging." in: Traber J., Gispen W. H. (Ed). Senile dementia of the Alzheimer type. pp 18-37, Springer-Verlag, Berlin, 1985). Concomitant pathology other than SDAT was discarded under a careful screening of the subjects with CT Scan, EEG, ECG and complementary laboratory data. Current diagnosis or history of SDM-III major affective disorder or schizophrenia as well as history of endocrine disease were criteria for exclusion. All of the control subjects were free of psychiatric and endocrine illness. All subjects included had been drug-free for a minimum of 7 days before testing.
A 21-gauge indwelling venous needle with an attached three-way stopcook was inserted into the antecubital vein. Baseline blood samples for GH determination were collected immediately before testing. GRF(1-44)NH2was then injected as an intravenous bolus (100 mcg), and blood samples were obtained at 15, 30, 45, 60, 90 and 120 minutes after injection for determination of GH concentrations in plasma. The plasma GH levels were measured by radioimmunoassay using a commercial GH-RIA-Kit (Dainabot Co. Ltd. Tokyo). The intra- and inter-assay coefficients of variation were 6.9% and 10.6%, respectively.
The results were analyzed statistically by the Student's test, analysis of variance (ANOVA) and the Mann-Whitney test using a NEC PC-9801VM2 computer.

Substance: growth hormone releasing factor [GRF]
- plasma GH (CONTROL (females), 0 min (basal, before GRF(1-44)NH2 100 mcg i.v.)): 1.03 ± 0.94 ng/mL
- plasma GH (CONTROL (females), 15 min after GRF(1-44)NH2 100 mcg i.v.): 3.09 ± 1.58 ng/mL
- plasma GH (CONTROL (females), 30 min after GRF(1-44)NH2 100 mcg i.v.): 3.68 ± 2.09 ng/mL
- plasma GH (CONTROL (females), 45 min after GRF(1-44)NH2 100 mcg i.v.): 4.28 ± 3.38 ng/mL
- plasma GH (CONTROL (females), 60 min after GRF(1-44)NH2 100 mcg i.v.): 2.97 ± 1.96 ng/mL
- plasma GH (CONTROL (females), 90 min after GRF(1-44)NH2 100 mcg i.v.): 2.04 ± 1.38 ng/mL
- plasma GH (CONTROL (females), 120 min after GRF(1-44)NH2 100 mcg i.v.): 1.10 ± 0.95 ng/mL
- plasma GH (CONTROL (males), 0 min (basal, before GRF(1-44)NH2 100 mcg i.v.)): 1.07 ± 0.92 ng/mL
- plasma GH (CONTROL (males), 15 min after GRF(1-44)NH2 100 mcg i.v.): 2.21 ± 1.87 ng/mL
- plasma GH (CONTROL (males), 30 min after GRF(1-44)NH2 100 mcg i.v.): 3.16 ± 2.76 ng/mL
- plasma GH (CONTROL (males), 45 min after GRF(1-44)NH2 100 mcg i.v.): 5.17 ± 3.46 ng/mL
- plasma GH (CONTROL (males), 60 min after GRF(1-44)NH2 100 mcg i.v.): 3.17 ± 2.61 ng/mL
- plasma GH (CONTROL (males), 90 min after GRF(1-44)NH2 100 mcg i.v.): 1.88 ± 1.87 ng/mL
- plasma GH (CONTROL (males), 120 min after GRF(1-44)NH2 100 mcg i.v.): 0.91 ± 0.87 ng/mL
- delay of GH response relative to the small peak in control subjects (EOSDAT): about 15 minutes
- plasma GH (EOSDAT (females), 0 min (basal, before GRF(1-44)NH2 100 mcg i.v.)): 1.92 ± 1.52 ng/mL
- plasma GH (EOSDAT (females), 15 min after GRF(1-44)NH2 100 mcg i.v.): 2.23 ± 1.90 ng/mL
- plasma GH (EOSDAT (females), 30 min after GRF(1-44)NH2 100 mcg i.v.): 6.26 ± 2.05 ng/mL
- plasma GH (EOSDAT (females), 45 min after GRF(1-44)NH2 100 mcg i.v.): 14.86 ± 3.57 ng/mL
- plasma GH (EOSDAT (females), 60 min after GRF(1-44)NH2 100 mcg i.v.): 19.74 ± 4.86 ng/mL
- plasma GH (EOSDAT (females), 90 min after GRF(1-44)NH2 100 mcg i.v.): 11.28 ± 5.72 ng/mL
- plasma GH (EOSDAT (females), 120 min after GRF(1-44)NH2 100 mcg i.v.): 5.09 ± 3.01 ng/mL
- plasma GH (EOSDAT (males), 0 min (basal, before GRF(1-44)NH2 100 mcg i.v.)): 1.99 ± 1.67 ng/mL
- plasma GH (EOSDAT (males), 15 min after GRF(1-44)NH2 100 mcg i.v.): 2.70 ± 1.92 ng/mL
- plasma GH (EOSDAT (males), 30 min after GRF(1-44)NH2 100 mcg i.v.): 5.49 ± 1.91 ng/mL
- plasma GH (EOSDAT (males), 45 min after GRF(1-44)NH2 100 mcg i.v.): 6.87 ± 2.84 ng/mL
- plasma GH (EOSDAT (males), 60 min after GRF(1-44)NH2 100 mcg i.v.): 11.52 ± 2.82 ng/mL
- plasma GH (EOSDAT (males), 90 min after GRF(1-44)NH2 100 mcg i.v.): 7.41 ng/mL
- plasma GH (EOSDAT (males), 120 min after GRF(1-44)NH2 100 mcg i.v.): 2.73 ± 1.71 ng/mL
- rise of plasma GH levels after GRF injection (EOSDAT females): 19.74 ± 4.86 ng·mL
- rise of plasma GH levels after GRF injection (EOSDAT males): 11.52 ± 2.82 ng/mL
- rise of plasma GH levels after GRF injection, individual range (EOSDAT responders): 5.5 to 28.75 ng/mL
- maximum peak of plasma GH (EOSDAT, 60 minutes after GRF(1-44)NH2 100 mcg i.v. bolus): 15.61 ± 5.71 ng/mL
- plasma GH (LOSDAT (females), 0 min (basal, before GRF(1-44)NH2 100 mcg i.v.)): 1.09 ± 1.01 ng/mL
- plasma GH (LOSDAT (females), 15 min after GRF(1-44)NH2 100 mcg i.v.): 2.04 ± 1.01 ng/mL
- plasma GH (LOSDAT (females), 30 min after GRF(1-44)NH2 100 mcg i.v.): 3.65 ± 2.35 ng/mL
- plasma GH (LOSDAT (females), 45 min after GRF(1-44)NH2 100 mcg i.v.): 4.68 ± 3.18 ng/mL
- plasma GH (LOSDAT (females), 60 min after GRF(1-44)NH2 100 mcg i.v.): 4.97 ± 3.86 ng/mL
- plasma GH (LOSDAT (females), 90 min after GRF(1-44)NH2 100 mcg i.v.): 4.04 ± 3.22 ng/mL
- plasma GH (LOSDAT (females), 120 min after GRF(1-44)NH2 100 mcg i.v.): 2.44 ± 2.05 ng/mL
- plasma GH (LOSDAT (males), 0 min (basal, before GRF(1-44)NH2 100 mcg i.v.)): 0.95 ± 0.98 ng/mL
- plasma GH (LOSDAT (males), 15 min after GRF(1-44)NH2 100 mcg i.v.): 2.13 ± 0.94 ng/mL
- plasma GH (LOSDAT (males), 30 min after GRF(1-44)NH2 100 mcg i.v.): 2.81 ± 1.90 ng/mL
- plasma GH (LOSDAT (males), 45 min after GRF(1-44)NH2 100 mcg i.v.): 3.61 ± 3.51 ng/mL
- plasma GH (LOSDAT (males), 60 min after GRF(1-44)NH2 100 mcg i.v.): 4.09 ± 2.56 ng/mL
- plasma GH (LOSDAT (males), 90 min after GRF(1-44)NH2 100 mcg i.v.): 3.08 ± 2.22 ng/mL
- plasma GH (LOSDAT (males), 120 min after GRF(1-44)NH2 100 mcg i.v.): 1.64 ± 0.82 ng/mL
- GRF-induced GH response (LOSDAT): absent
- GRF-induced GH response (control subjects): absent
